Patent US7662824B2, “Acylhydrazones as kinase modulators” (Janssen Pharmaceutica NV, priority 2005, dated 2010)
Values after ≈ are worked out from the molar mass of the structure shown. Counter-ions that a name gives are not always drawn.

Legend:
c-Met [1] = target: T1, c-Met (Homo sapiens, UniProt P08581); experiment: Delfia autophosphorylation kinase assay on the c-Met; type: biochemical; set-up: The purified His6 tagged cytoplasmic domain of c-Met was diluted to a concentration of 500 ng/ml; made in house; host or cells: Sf9 insect cells with recombinant baculovirus; Large-scale expression and purification were done by the contract lab Pan Vera; conditions: His6 tagged cytoplasmic domain of c-Met, 1 μM ATP; read-out: c-Met Delfia Autophos IC50
Procedure: This example describes the cloning, expression, and purification of the cytoplasmic domain of c-Met which has the c-Met receptor tyrosine kinase activity.
A DELFIA time resolved fluorescence assay was developed for screening of compounds that decreases the autophosphorylation thus the kinase activity of c-Met.
The DELFIA assay is non-radioactive. The autophophorylation of the c-Met is measured by an anti-phosphotyrosine antibody coupled to an Europium tag.
A major advantage of this format is that it allowed for the development of an autophosphorylation assay using Ni-chelate plates which bind the hexa-his tag on the recombinant Met kinase. Autophosphorylation assay allows to use a known substrate, Met kinase itself, for the phosphorylation. The DELFIA Met autophosphorylation assay is very sensitive with a signal to noise ratio in excess of 50:1.
The assay procedure for screening is as follows. The purified His6 tagged cytoplasmic domain of c-Met was diluted to a concentration of 500 ng/ml in enzyme dilution buffer (50 mM Tris-HCl, pH8.0, 0.1% BSA) and dispensed to assay plates at a volume of 50 μl per well. Black opaque HisGrab Nickel coated 96 well plates (Pierce, Rockford, Ill.) were selected to run the assay. Next, 2.5 μl of compound in 40% DMSO was added to test wells, 2.5 μl of 40% DMSO only was added to the negative control wells. The autophosphorylation reaction was initiated upon the addition of 50 μl of reaction buffer, 50 mM Tris-HCl, pH 8.0, 10 mM MgCl2, 0.1 mM Na3VO4, 1 mM DTT, 1 μM ATP. Plates were incubated at room temperature for 1 hour followed by 2 washes with 200 μl/well of PBS. Europium conjugated anti-phosphotyrosine antibody, Eu-PY20 from Perkin Elmer was diluted to 50 ng/ml in Delfia AB buffer (Perkin Elmer, Boston, Mass.), added to the 96 well assay plates at a volume of […], and incubated at room temperature for 2 hours. Assay plates were then washed 4 times each with 200 μl/well of Delfia wash buffer (Perkin Elmer). After the final wash 150 μl of Delfia Enhancement solution (Perkin Elmer) was added to each well of the assay plate and incubated at room temperature for 1 hour. Plates were read on an LJL Analyst instrument (Molecular Devices; Sunnyvale, Calif.) with filter settings of 360 excitation, 620 emission, and 410 dichroic. IC50 values were calculated using Graphpad Prism software (Graphpad Software; San Diego, Calif.).
Target sequence in this assay (P08581 956-1390 limits assumed): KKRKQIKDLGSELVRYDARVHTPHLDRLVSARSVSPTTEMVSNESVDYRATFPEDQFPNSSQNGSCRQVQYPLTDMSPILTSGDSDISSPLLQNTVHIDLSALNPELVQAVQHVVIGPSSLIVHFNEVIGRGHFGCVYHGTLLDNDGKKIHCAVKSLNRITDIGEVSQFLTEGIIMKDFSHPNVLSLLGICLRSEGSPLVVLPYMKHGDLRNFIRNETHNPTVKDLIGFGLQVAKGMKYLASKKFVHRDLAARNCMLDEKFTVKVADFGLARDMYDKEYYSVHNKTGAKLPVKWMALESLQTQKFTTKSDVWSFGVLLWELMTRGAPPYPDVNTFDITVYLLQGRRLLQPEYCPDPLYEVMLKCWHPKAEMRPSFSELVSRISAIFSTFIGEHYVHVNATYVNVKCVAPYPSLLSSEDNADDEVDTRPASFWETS

c-Met [2] = target: T1, c-Met; experiment: Fluorescence polarization assay on the kinase activity of c-Met; type: biochemical; set-up: The c-Met kinase domain consists amino acid 1046-1390 of the c-Met protein; made in house; host or cells: Sf9 insect cells with baculovirus; conditions: 6H-TEV-cMet, poly Gly4Tyr substrate, 10 μM ATP; read-out: c-Met FP Enz IC50
Text: A fluorescence polarization assay (FP) was developed for screening of compounds that decreases the kinase activity of c-Met.
A protein (6H-TEV-cMet) comprising c-Met kinase domain was cloned, recombinantly expressed and purified following a procedure similar to that as described in Example A. The protein comprises a His tag consisting of six histidines at its N-terminal, a TEV protease cleavage site, and the c-Met kinase domain. The c-Met kinase domain consists amino acid 1046-1390 of the c-Met protein as listed in GenBank protein accession number P08581.
For the c-Met kinase assay, the 6H-TEV-cMet was used as the enzyme, and a poly Gly4Tyr peptide (Sigma, P-0275) was used as the substrate. The kinase reaction was performed in a volume of 10 μl in HE microplates (LJL Biosystems). Assay conditions were as follows: 100 mM HEPES pH 7.5, 0.01% Tween-20, 1 mM DTT, 5 mM MgCl2, 10 μM ATP, 10 μg/ml poly Gly4Tyr. The kinase reaction was initiated upon addition of 10 nM 6H-TEV-cMet. After a 12 minute incubation at room temperature the reaction was terminated with […] 50 mM EDTA.
Phosphorylation of the peptide substrate was detected with PanVera Tyrosine Kinase Assay Kit, Green reagents (P2837). Five minutes after the addition of EDTA, 10 μl of antibody/tracer mix (Pan Vera reagents, 1:1:3 dilution of antibody: Tracer: FP dilution buffer, Cat. # P2837) was added to each well. Plates were allowed to incubate for 30 minutes at room temperature and fluorescence polarization was measured with an LJL Analyst instrument (Molecular Devices; Sunnyvale, Calif.) with excitation=485 nm filter and emission=530 nm filter. IC50 values were calculated from triplicate sets of data using Graphpad Prism software (Graphpad Software; San Diego, Calif.).
Target sequence in this assay (P08581 1046-1390): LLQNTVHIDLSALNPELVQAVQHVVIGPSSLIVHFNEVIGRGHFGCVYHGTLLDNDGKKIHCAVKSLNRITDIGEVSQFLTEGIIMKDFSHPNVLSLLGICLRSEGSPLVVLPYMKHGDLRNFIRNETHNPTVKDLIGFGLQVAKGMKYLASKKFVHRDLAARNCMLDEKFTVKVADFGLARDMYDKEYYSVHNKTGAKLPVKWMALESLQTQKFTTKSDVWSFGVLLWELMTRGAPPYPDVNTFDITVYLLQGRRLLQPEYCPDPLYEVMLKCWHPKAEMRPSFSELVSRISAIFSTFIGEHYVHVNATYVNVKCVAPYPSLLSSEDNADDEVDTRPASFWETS

Aqueous solubility assay = conditions: water with 0.4% DMSO, kinetic from dmso stock
Procedure: Water, PBS and aqueous HCl at pH2 having a final DMSO content of 0.4%, with the final DMSO concentration reaching 40 μM. Samples were placed in the incubator and shaken for 15 minutes.

CN1CCN(C(=O)c2cc(Br)c3c(c2)NC(=O)/C3=N\NC(=O)Cc2ccc3onc(N)c3c2)CC1 [Example 19, (3-Amino-benzo[d]isoxazol-5-yl)-acetic acid [4-bromo-6-(4-methyl-piperazine-1-carbonyl)-2-oxo-1,2-dihydro-indol-3-ylidene]-hydrazide]
IC50 (c-Met [1]): 158 nM

O=C(Cc1ccc2c(c1)CCO2)N/N=C1/C(=O)Nc2cc(C(=O)NCCCN3CCC[C@H]3CO)cc(Br)c21 [Example 1, (S)-4-Bromo-3-[(2-2,3-dihydro-benzofuran-5-yl-acetyl)-hydrazono]-2-oxo-2,3-dihydro-1H-indole-6-carboxylic acid [3-(2-hydroxymethyl-pyrrolidin-1-yl)-propyl]-amide]
IC50 (c-Met [1]): 6 nM

4-Bromo-3-[(2-2,3-dihydro-benzofuran-5-yl-acetyl)-hydrazono]-2-oxo-2,3-dihydro-1H-indole-6-carboxylic acid (3-morpholin-4-yl-propyl)-amide [Example 7]
IC50 (c-Met [1]): 0.7 nM
IC50 (c-Met [2]): 1 nM

CN1CCN(CCCNC(=O)c2cc(Br)c3c(c2)NC(=O)/C3=N\NC(=O)Cc2ccc3c(c2)CCO3)CC1 [Example 5, 4-Bromo-3-[(2-2,3-dihydro-benzofuran-5-yl-acetyl)-hydrazono]-2-oxo-2,3-dihydro-1H-indole-6-carboxylic acid [3-(4-methyl-piperazin-1-yl)-propyl]-amide]
solubility at 15 min (Aqueous solubility assay): 38.8 µM (≈ 22.6 µg/mL)
IC50 (c-Met [1]): 1 nM
IC50 (c-Met [2]): 13 nM

CN(C)CCCNC(=O)c1cc(Br)c2c(c1)NC(=O)/C2=N\NC(=O)Cc1ccc2c(c1)CCO2 [Example 9, 4-Bromo-3-[(2-2,3-dihydro-benzofuran-5-yl-acetyl)-hydrazono]-2-oxo-2,3-dihydro-1H-indole-6-carboxylic acid (3-dimethylamino-propyl)-amide]
IC50 (c-Met [1]): 5 nM

CN1CCN(C(=O)c2cc(Br)c3c(c2)NC(=O)/C3=N\NC(=O)Cc2ccc3occc3c2)CC1 [Example 16, Benzofuran-5-yl-acetic acid [4-bromo-6-(4-methyl-piperazine-1-carbonyl)-2-oxo-1,2-dihydro-indol-3-ylidene]-hydrazide hydrochloride]
IC50 (c-Met [1]): 65 nM

O=C(Cc1ccc2c(c1)CCO2)N/N=C1\C(=O)Nc2cc(C(=O)NCCN3CCOCC3)ccc21 [Example 3, 3-[(2-2,3-Dihydro-benzofuran-5-yl-acetyl)-hydrazono]-2-oxo-2,3-dihydro-1H-indole-6-carboxylic acid(2-morpholin-4-yl-ethyl)-amide]
solubility at 15 min (Aqueous solubility assay): 38.1 µM (≈ 18.2 µg/mL)
IC50 (c-Met [1]): 24 nM
IC50 (c-Met [2]): 24 nM

O=C(Cc1ccc2c(c1)CCO2)N/N=C1\C(=O)Nc2cc(C(=O)NCCCN3CCC[C@@H]3CO)cc(Br)c21 [Example 11, (R)-4-Bromo-3-[(2-2,3-dihydro-benzofuran-5-yl-acetyl)-hydrazono]-2-oxo-2,3-dihydro-1H-indole-6-carboxylic acid [3-(2-hydroxymethyl-pyrrolidin-1-yl)-propyl]-amide]
IC50 (c-Met [1]): 0.5 nM

CN(C)CCCNC(=O)c1cc(Br)c2c(c1)NC(=O)/C2=N\NC(=O)Cc1ccc2occc2c1 [Example 14, 3-[(2-Benzofuran-5-yl-acetyl)-hydrazono]-4-bromo-2-oxo-2,3-dihydro-1H-indole-6-carboxylic acid (3-dimethylamino-propyl)-amide]
IC50 (c-Met [1]): 1.6 nM

O=C(Cc1ccc2c(c1)CCO2)N/N=C1\C(=O)Nc2cc(C(=O)NCCN3CCOCC3)cc(Br)c21 [Example 6, 4-Bromo-3-[(2-2,3-dihydro-benzofuran-5-yl-acetyl)-hydrazono]-2-oxo-2,3-dihydro-1H-indole-6-carboxylic acid (2-morpholin-4-yl-ethyl)-amide]
solubility at 15 min (Aqueous solubility assay): 44 µM (≈ 24.5 µg/mL)
IC50 (c-Met [1]): 5 nM
IC50 (c-Met [2]): 5 nM

CN1CCN(C(=O)c2cc(Br)c3c(c2)NC(=O)/C3=N\NC(=O)Cc2ccc3sccc3c2)CC1 [Example 18, Benzothiophen-5-yl-acetic acid [4-bromo-6-(4-methyl-piperazine-1-carbonyl)-2-oxo-1,2-dihydro-indol-3-ylidene]-hydrazide hydrochloride]
IC50 (c-Met [1]): 4700 nM

O=C(Cc1ccc2c(c1)CCO2)N/N=C1\C(=O)Nc2cc(C(=O)NCCCN3CC[C@H](O)C3)cc(Br)c21 [Example 13, (S)-4-Bromo-3-[(2-2,3-dihydro-benzofuran-5-yl-acetyl)-hydrazono]-2-oxo-2,3-dihydro-1H-indole-6-carboxylic acid [3-(3-hydroxy-pyrrolidin-1-yl)-propyl]-amide]
IC50 (c-Met [1]): 1 nM

CN1CCN(CCCNC(=O)c2ccc3c(c2)NC(=O)/C3=N\NC(=O)Cc2ccc3c(c2)CCO3)CC1 [Example 4, 3-[(2-2,3-Dihydro-benzofuran-5-yl-acetyl)-hydrazono]-2-oxo-2,3-dihydro-1H-indole-6-carboxylic acid [3-(4-methyl-piperazin-1-yl)-propyl]-amide]
solubility at 15 min (Aqueous solubility assay): 37.9 µM (≈ 19.1 µg/mL)
IC50 (c-Met [1]): 28 nM

O=C(Cc1ccc2c(c1)CCO2)N/N=C1\C(=O)Nc2cc(C(=O)NCCCN3CC[C@@H](O)C3)cc(Br)c21 [Example 10, (R)-4-Bromo-3-[(2-2,3-dihydro-benzofuran-5-yl-acetyl)-hydrazono]-2-oxo-2,3-dihydro-1H-indole-6-carboxylic acid [3-(3-hydroxy-pyrrolidin-1-yl)-propyl]-amide]
IC50 (c-Met [1]): 0.7 nM

CN1CCN(C(=O)c2cc(Br)c3c(c2)NC(=O)/C3=N\NC(=O)Cc2ccc3c(c2)CCO3)CC1 [Example 2, (2,3-Dihydro-benzofuran-5-yl)-aceticacid[4-bromo-6-(4-methyl-piperazine-1-carbonyl)-2-oxo-1,2-dihydro-indol-3-ylidene]-hydrazide]
solubility at 15 min (Aqueous solubility assay): 43.9 µM (≈ 23.1 µg/mL)
IC50 (c-Met [1]): 10 nM

O=C(Cc1ccc2c(c1)CCO2)N/N=C1\C(=O)Nc2cc(C(=O)NCCCN3CCC(O)CC3)cc(Br)c21 [Example 12, 4-Bromo-3-[(2-2,3-dihydro-benzofuran-5-yl-acetyl)-hydrazono]-2-oxo-2,3-dihydro-1H-indole-6-carboxylic acid [3-(4-hydroxy-piperidin-1-yl)-propyl]-amide]
IC50 (c-Met [1]): 2 nM

CN1CCN(C(=O)c2cc(Br)c3c(c2)NC(=O)/C3=N\NC(=O)Cc2ccc3ocnc3c2)CC1 [Example 17, Benzooxazol-5-yl-acetic acid [4-bromo-6-(4-methyl-piperazine-1-carbonyl)-2-oxo-1,2-dihydro-indol-3-ylidene]-hydrazide]
IC50 (c-Met [1]): 656 nM

O=C(Cc1ccc2c(c1)CCO2)N/N=C1\C(=O)Nc2cc(C(=O)NCCCO)cc(Br)c21 [Example 15, 4-Bromo-3-[(2-2,3-dihydro-benzofuran-5-yl-acetyl)-hydrazono]-2-oxo-2,3-dihydro-1H-indole-6-carboxylic acid (3-hydroxy-propyl)-amide]
IC50 (c-Met [1]): 1 nM
